Converted amounts (≈) assume the structure as drawn. Structures can show the parent of a compound that is named as a salt.
Assays:
[1] = test system: Herpes simplex type 1 virus (HFEM strain); experiment: Plaque reduction, Herpes simplex type 1 virus (HFEM strain) in Vero cells (Method 1); assay type: cell-based; conditions: 50% reduction in number of virus plaques, 4 days at 37° C.; for IC50: Human alphaherpesvirus 1, Vero, 96 h, read-out: PDD50 Herpes simplex type 1 virus HFEM strain in Vero cells
Experimental: (§1) Vero (Arican Green Monkey Kidney) cells were grown to confluence in 24 well multidishes, each well being 1.6 cm in diameter. The cells were infected with Herpes simplex type 1 virus (HFEM strain) and overlaid with 0.5 ml of 0.9% agarose (w/v) in maintenance medium. The test compound, prepared in maintenance medium in concentrations ranging from 100 to 0.3 μg/ml in half-log dilution steps, was added in 0.5 ml volume. The virus infected cultures were then incubated at 37° C. for 4 days before fixing in 4% formaldehyde solution and staining with carbol fuchsin.

[2] = test system: Herpes simplex type 1 virus, strain SC16; experiment: Virus cytopathic effect (CPE) reduction, Herpes simplex type 1 virus strain SC16 in MRC-5 cells (Method 2); assay type: cell-based; conditions: 50% reduction of virus CPE, 3 days at 37° C.; for IC50: Human alphaherpesvirus 1, SC16, MRC5, 72 h, read-out: PDD50 Herpes simplex type 1 virus SC16 strain in MRC-5 cells
Experimental: (§2) MRC-5 cells were infected in suspension with Herpes simplex type 1 virus, strain SC16. The infected cell suspension was dispensed (0.1 ml) in 96 well microtitre plates containing the test drugs in maintenance medium in concentrations ranging from 100 to 0.03 μg/ml in half-log dilution steps (0.1 ml per well). The plates were then icubated at 37° C. for 3 days when the virus cytopathic effect (CPE) in the control wells reached 100%. The plates were fixed in 4% formaldehyde solution and stained with carbol fuchsin. […] Plates using uninfected cells were run in parallel to determine the minimum concentration of test compound which caused cytotoxicity (MTD).

[3] = test system: Herpes simplex type 2 virus (MS strain); experiment: Plaque reduction, Herpes simplex type 2 virus (MS strain) in Vero cells (Method 1); assay type: cell-based; conditions: Human alphaherpesvirus 2, Method 1, plaque reduction, read-out: PDD50 Herpes simplex type 2 virus MS strain in Vero cells
Experimental: as §1
(§3) Compounds were also tested against Herpes simplex type 2 virus (MS strain) in Vero cells using Method 1 and in MRC-5 cells using Method 2. In the latter test, the incubation time was reduced to 24 hours.

[4] = test system: Herpes simplex type 2 virus (MS strain); experiment: Virus CPE reduction, Herpes simplex type 2 virus (MS strain) in MRC-5 cells (Method 2, 24 hours incubation); assay type: cell-based; conditions: Human alphaherpesvirus 2, MRC5, Method 2, CPE reduction, incubation 24 hours, read-out: PDD50 Herpes simplex type 2 virus MS strain in MRC-5 cells
Experimental: as §2, §3

[5] = Blood concentration of 9-(4-hydroxy-3-hydroxymethylbut-1-yl)guanine in mice after oral administration of derivatives (Method 3); assay type: in vivo; conditions: female Balb/C mice, oral gavage 0.2 mmoles/kg of administered compound, blood 15 minutes later, pooled from three mice; analyte 9-(4-hydroxy-3-hydroxymethylbut-1-yl)guanine
Experimental: Compounds were administered by oral gavage (0.2 mmoles/kg in 0.1 ml of 1% carboxymethyl cellulose) to 20 g female Balb/C mice which had been starved for 18 hours. Fifteen minutes later, blood was collected from three mice by cardiac puncture using heparinised syringes. Equal aliquots were pooled and an equal volume of 16% trichloroacetic acid added. Following centrifugation (8,500 g) to remove precipitated proteins, the resulting mixture was analysed by high performance liquid chromatography using a C18 Nova-Pak cartridge eluted with Buffer A (50 mM NaH2PO4, pH4.6) and Buffer B (10% Buffer A, 10% water, 80% methanol) in a gradient from 1% to 95% Buffer B. 9-(4-Hydroxy-3-hydroxymethylbut-1-yl)guanine was assayed with a Pye-Unicam PU4021 u.v. detector set at 254 nm.

Row | IC50 [1] | melting point | IC50 [3] | SMILES | IC50 [2] | IC50 [4] | other results
1 | 95 µg/mL (≈ 266 µM) | 156 to 168 °C | – | Nc1nc2c(ncn2CCC(CO)COC(=O)c2ccccc2)c(=O)[nH]1 (stereo not shown) [Example 32, 9-(4-Benzoyloxy-3-hydroxymethylbut-1-yl)guanine] | 3 µg/mL (≈ 8.39 µM) | – | –
2 | – | 225 to 237 °C | – | CC(C)(C)C(=O)OCC(CCn1cnc2c(=O)[nH]c(N)nc21)COC(=O)C(C)(C)C [Example 30, 9-(4-Pivalyloxy-3-pivalyloxymethylbut-1-yl)guanine] | – | – | –
3 | > 100 µg/mL | 117 to 119 °C | 63 µg/mL (≈ 236 µM) | COc1nc(N)nc2c1ncn2CCC(CO)CO [Example 15, 2-Amino-9-(4-hydroxy-3-hydroxymethylbut-1-yl)-6-methoxypurine] | > 100 µg/mL | 49 µg/mL (≈ 183 µM) | –
4 | – | 173 to 175 °C | – | Nc1nc(Oc2ccccc2)c2ncn(CCC(CO)CO)c2n1 [Example 39, 2-Amino-9-(4-hydroxy-3-hydroxymethylbut-1-yl)-6-phenoxypurine] | – | – | –
5 | 16 µg/mL (≈ 32.5 µM) | 183 to 191 °C | – | CCCCCCCCCCCCCCCC(=O)OCC(CO)CCn1cnc2c(=O)[nH]c(N)nc21 (stereo not shown) [Example 34, 9-(4-Hexadecanoyloxy-3-hydroxymethylbut-1-yl)guanine] | 2 µg/mL (≈ 4.07 µM) | – | –
6 | – | 187 to 190 °C | – | Nc1nc(N)c2ncn(CCC(CO)CO)c2n1 [Example 21, 2,6-Diamino-9-(4-hydroxy-3-hydroxymethylbut-1-yl)purine] | – | – | –
7 | 1.3 µg/mL (≈ 5.13 µM) | – | 2.3 µg/mL (≈ 9.08 µM) | Nc1nc2c(ncn2CCC(CO)CO)c(=O)[nH]1 [Example 4, 9-(4-Hydroxy-3-hydroxymethylbut-1-yl)guanine] | 0.9 µg/mL (≈ 3.55 µM) | 0.6 µg/mL (≈ 2.37 µM) | –
8 | – | 143 to 146 °C | – | CC(=O)Nc1nc2c(ncn2CCC(CO)CO)c(=O)[nH]1 [Example 36, N^2-Acetyl-9-(4-hydroxy-3-hydroxymethylbut-1-yl)guanine] | – | – | –
9 | – | 150 to 152 °C | – | CCOc1nc(N)nc2c1ncn2CCC(CO)CO [Example 16, 2-Amino-6-ethoxy-9-(4-hydroxy-3-hydroxymethylbut-1-yl)purine] | – | – | –
10 | – | 179 to 181 °C | – | CCCCCC(=O)OCC(CO)CCn1cnc2c(=O)[nH]c(N)nc21 (stereo not shown) [Example 33, 9-(4-Hexanoyloxy-3-hydroxymethylbut-1-yl)guanine] | – | – | –
11 | – | 146 to 147.5 °C | – | Nc1nc(OCc2ccccc2)c2ncn(CCC(CO)CO)c2n1 [Example 17, 2-Amino-6-benzyloxy-9-(4-hydroxy-3-hydroxymethylbut-1-yl)purine] | – | – | –

Second part, the compound before the results:

Row | SMILES | IC50 [1] | melting point | IC50 [3] | IC50 [2] | IC50 [4] | other results
12 | CCC(=O)Nc1nc2c(ncn2CCC(COC(=O)CC)COC(=O)CC)c(=O)[nH]1 [Example 24, N^2-Propionyl-9-(4-propionyloxy-3-propionyloxymethyl-but-1-yl)guanine] | > 100 µg/mL | – | > 100 µg/mL | > 100 µg/mL | 65 µg/mL (≈ 154 µM) | –
13 | CC(C)Oc1nc(N)nc2c1ncn2CCC(CO)CO [Example 38, 2-Amino-9-(4-hydroxy-3-hydroxymethylbut-1-yl)-6-isopropoxypurine] | – | 111.5 to 113.5 °C | – | – | – | –
14 | N.N.Nc1nc2c(ncn2CCC(CO)COP(=O)(O)O)c(=O)[nH]1 (stereo not shown) [Example 35, 9-(4-Hydroxy-3-hydroxymethylbut-1-yl)guanine 4′-Phosphate Diammonium Salt] | – | – | – | – | – | Concentration of Example 4 in Blood [5]: 1100 ng/mL
15 | CCCCCC(=O)OCC(CCn1cnc2c(=O)[nH]c(N)nc21)COC(=O)CCCCC [Example 25, 9-(4-Hexanoyloxy-3-hexanoyloxymethylbut-1-yl)guanine] | 1.9 µg/mL (≈ 4.23 µM) | 198.5 to 201 °C | 1.6 µg/mL (≈ 3.56 µM) | 1 µg/mL (≈ 2.22 µM) | 0.9 µg/mL (≈ 2 µM) | –
16 | CC(=O)OCC(CCn1cnc2c(=O)[nH]c(N)nc21)COC(C)=O [Example 22, 9-(4-Acetoxy-3-acetoxymethylbut-1-yl)guanine] | > 100 µg/mL | 202 to 205 °C | > 100 µg/mL | > 100 µg/mL | 83 µg/mL (≈ 246 µM) | –
17 | Nc1nc2c(ncn2CCC(CO)CO)c(=O)[nH]1.[Na] [Example 12, 9-(4-Hydroxy-3-hydroxymethylbut-1-yl)guanine, Sodium Salt] | 2.2 µg/mL | – | – | 0.7 µg/mL | – | –
18 | Nc1nc2c(ncn2CCC(CO)CO)c(=O)[nH]1 [Example 13, 9-(4-Hydroxy-3-hydroxymethylbut-1-yl)guanine, Potassium Salt] | – | – | – | – | – | PDD50 Herpes simplex type 1 virus HFEM strain in Vero cells ([1]; Potassium Salt): 1.7 µg/mL; PDD50 Herpes simplex type 1 virus SC16 strain in MRC-5 cells ([2]; Potassium Salt): 0.7 µg/mL
19 | Nc1nc2c(ncn2CCC(COC(=O)n2ccnc2)COC(=O)n2ccnc2)c(=O)[nH]1 [Example 27, 9-[4-(N-Imidazolylcarbonyloxy)-3-(N-imidazolylcarbonyloxymethyl)-but-1-yl]guanine] | 13 µg/mL (≈ 29.5 µM) | – | 2.8 µg/mL (≈ 6.34 µM) | 1.5 µg/mL (≈ 3.4 µM) | 5.7 µg/mL (≈ 12.9 µM) | –
20 | CCC(=O)OCC(CCn1cnc2c(=O)[nH]c(N)nc21)COC(=O)CC [Example 23, 9-(4-Propionyloxy-3-propionyloxymethylbut-1-yl)guanine] | > 100 µg/mL | – | > 100 µg/mL | 25 µg/mL (≈ 68.4 µM) | 85 µg/mL (≈ 233 µM) | –
21 | Nc1nc2c(ncn2CCC(COC=O)COC=O)c(=O)[nH]1 [Example 26, 9-(4-Formyloxy-3-formyloxymethylbut-1-yl)guanine] | – | 195 to 198 °C | – | – | – | –
22 | CC(=O)OCC(CO)CCn1cnc2c(=O)[nH]c(N)nc21 (stereo not shown) [Example 31, 9-(4-Acetoxy-3-hydroxymethylbut-1-yl)guanine] | 24 µg/mL (≈ 81.3 µM) | 194 to 200 °C | – | 10 µg/mL (≈ 33.9 µM) | – | –
23 | CCCCCC(=O)Nc1nc2c(ncn2CCC(CO)CO)c(=O)[nH]1 [Example 37, N^2-Hexanoyl-9-(4-hydroxy-3-hydroxymethylbut-1-yl)guanine] | – | 86 to 88 °C | – | – | – | –
